# Assay results as given in US12685315B2, “Herbicidal combination” (UPL do Brasil Industria e Comercio de Insumos Agropecuarios …, priority 2019, dated 2026).
# What was measured:
# Format in all cases: in vivo
# [1] = tested on: Brachiaria decumbens (BRADC); assay: Field trial of triple mixes of amicarbazone, pre and post-emergence weed control
# Method: (§1) Field trials were done to evaluate the efficacy and synergism of the triple mixes of amicarbazone with other herbicides for the control of weeds in pre and post-emergence application.
# (§2) The composition of the present invention was applied. This test was performed for species of weeds: Grasses namely BRADC=Brachiaria decumbens, CCHEC=Cenchrus echinatus, ELEIN=Eleusine indica, TRCIN=Digitaria insularis and Broadleaves namely IAQGR=Ipomoea grandifolia, EPHHL=Euphorbia heterophylla, COMBE=Commelina benghalensis. Data were collected at various period after application of the composition to the soil and calculated.
# [2] = tested on: Cenchrus echinatus (CCHEC); assay: as above
# Method: as §1, §2
# Eleusine indica = assay: as above
# Method: as §1, §2
# Commelina benghalensis = assay: Field trial of triple mixes of amicarbazone, pre-emergence weed control; conditions: dose g ai/ha: Amicarbazone 75, Mesotrione 38, Ametryn 250, mix AMC + AME + MST 75 + 38 + 250
# Method: as §1, §2
# Euphorbia heterophylla = assay: as above; conditions: dose g ai/ha: Amicarbazone 250, Sulfentrazone 150, Diuron 250, mix 250 + 150 + 250
# Method: as §1, §2
# [3] = tested on: Ipomoea grandifolia (IAQGR); assay: as above
# Method: as §1, §2
# Digitaria insularis = assay: Field trial of triple mixes of amicarbazone, post-emergence weed control; conditions: dose g ai/ha: Amicarbazone 75, S-metolachlor 300, Atrazine 250, mix 75 + 300 + 250
# Method: as §1, §2
smiles,measurement,setting,value
CC(C)c1nn(C(=O)NC(C)(C)C)c(=O)n1N [Amicarbazone],% Control,"[1]; Table 1, Post-Emergence, 7 DAA, dose g ai/ha: Amicarbazone 75, Isoxaflutole 15, Atrazine 250, mix 75 + 15 + 250",43.8%
same,% Control,"[1]; Table 1, Post-Emergence, 21 DAA, dose g ai/ha: Amicarbazone 75, Isoxaflutole 15, Atrazine 250, mix 75 + 15 + 250",38.8%
same,% Control,"[1]; Table 1, Post-Emergence, 28 DAA, dose g ai/ha: Amicarbazone 75, Isoxaflutole 15, Atrazine 250, mix 75 + 15 + 250",40.0%
same,% Control,"[1]; Table 1, Pre-Emergence, 7 DAA, dose g ai/ha: Amicarbazone 75, Isoxaflutole 15, Atrazine 250, mix 75 + 15 + 250",0.0%
same,% Control,"[1]; Table 1, Pre-Emergence, 21 DAA, dose g ai/ha: Amicarbazone 75, Isoxaflutole 15, Atrazine 250, mix 75 + 15 + 250",0.0%
same,% Control,"[1]; Table 1, Pre-Emergence, 28 DAA, dose g ai/ha: Amicarbazone 75, Isoxaflutole 15, Atrazine 250, mix 75 + 15 + 250",0.0%
same,% Control,"[1]; Table 5, Post-Emergence, 21 DAA, dose g ai/ha: Amicarbazone 250, Clomazone 250, Diuron 250, mix 250 + 250 + 250",25.0%
same,% Control,"[1]; Table 5, Post-Emergence, 28 DAA, dose g ai/ha: Amicarbazone 250, Clomazone 250, Diuron 250, mix 250 + 250 + 250",16.3%
same,% Control,"[1]; Table 5, Post-Emergence, 35 DAA, dose g ai/ha: Amicarbazone 250, Clomazone 250, Diuron 250, mix 250 + 250 + 250",13.8%
same,% Control,"[1]; Table 5, Pre-Emergence, 21 DAA, dose g ai/ha: Amicarbazone 250, Clomazone 250, Diuron 250, mix 250 + 250 + 250",63.8%
same,% Control,"[1]; Table 5, Pre-Emergence, 28 DAA, dose g ai/ha: Amicarbazone 250, Clomazone 250, Diuron 250, mix 250 + 250 + 250",50.0%
same,% Control,"[1]; Table 5, Pre-Emergence, 35 DAA, dose g ai/ha: Amicarbazone 250, Clomazone 250, Diuron 250, mix 250 + 250 + 250",46.3%
same,% Control,"[2]; Table 2, Post-Emergence, 7 DAA, dose g ai/ha: Amicarbazone 75, Isoxaflutole 15, Atrazine 250, mix 75 + 15 + 250",33.8%
same,% Control,"[2]; Table 2, Post-Emergence, 28 DAA, dose g ai/ha: Amicarbazone 75, Isoxaflutole 15, Atrazine 250, mix 75 + 15 + 250",40.0%
same,% Control,"[2]; Table 2, Post-Emergence, 35 DAA, dose g ai/ha: Amicarbazone 75, Isoxaflutole 15, Atrazine 250, mix 75 + 15 + 250",36.3%
same,% Control,"[2]; Table 6, Post-Emergence, 21 DAA, dose g ai/ha: Amicarbazone 250, Sulfentrazone 150, Diuron 250, mix 250 + 150 + 250",0.0%
same,% Control,"[2]; Table 6, Post-Emergence, 28 DAA, dose g ai/ha: Amicarbazone 250, Sulfentrazone 150, Diuron 250, mix 250 + 150 + 250",0.0%
same,% Control,"[2]; Table 6, Post-Emergence, 35 DAA, dose g ai/ha: Amicarbazone 250, Sulfentrazone 150, Diuron 250, mix 250 + 150 + 250",0.0%
same,% Control,"[2]; Table 6, Pre-Emergence, 21 DAA, dose g ai/ha: Amicarbazone 250, Sulfentrazone 150, Diuron 250, mix 250 + 150 + 250",7.5%
same,% Control,"[2]; Table 6, Pre-Emergence, 28 DAA, dose g ai/ha: Amicarbazone 250, Sulfentrazone 150, Diuron 250, mix 250 + 150 + 250",5.0%
same,% Control,"[2]; Table 6, Pre-Emergence, 35 DAA, dose g ai/ha: Amicarbazone 250, Sulfentrazone 150, Diuron 250, mix 250 + 150 + 250",3.3%
same,% Control,"Eleusine indica; Table 8, Post-Emergence, 14 DAA, dose g ai/ha: Amicarbazone 250, Sulfentrazone 150, Diuron 250, mix 250 + 150 + 250",13.8%
same,% Control,"Eleusine indica; Table 8, Post-Emergence, 21 DAA, dose g ai/ha: Amicarbazone 250, Sulfentrazone 150, Diuron 250, mix 250 + 150 + 250",16.3%
same,% Control,"Eleusine indica; Table 8, Post-Emergence, 28 DAA, dose g ai/ha: Amicarbazone 250, Sulfentrazone 150, Diuron 250, mix 250 + 150 + 250",13.8%
same,% Control,"Eleusine indica; Table 8, Pre-Emergence, 14 DAA, dose g ai/ha: Amicarbazone 250, Sulfentrazone 150, Diuron 250, mix 250 + 150 + 250",68.8%
same,% Control,"Eleusine indica; Table 8, Pre-Emergence, 21 DAA, dose g ai/ha: Amicarbazone 250, Sulfentrazone 150, Diuron 250, mix 250 + 150 + 250",92.0%
same,% Control,"Eleusine indica; Table 8, Pre-Emergence, 28 DAA, dose g ai/ha: Amicarbazone 250, Sulfentrazone 150, Diuron 250, mix 250 + 150 + 250",87.0%
same,% Control,"Eleusine indica; Table 10, Post-Emergence, 14 DAA, dose g ai/ha: Amicarbazone 75, Mesotrione 38, Ametryn 250, mix AMC + AME + MST 75 + 38 + 250",0.0%
same,% Control,"Eleusine indica; Table 10, Post-Emergence, 21 DAA, dose g ai/ha: Amicarbazone 75, Mesotrione 38, Ametryn 250, mix AMC + AME + MST 75 + 38 + 250",0.0%
same,% Control,"Eleusine indica; Table 10, Post-Emergence, 28 DAA, dose g ai/ha: Amicarbazone 75, Mesotrione 38, Ametryn 250, mix AMC + AME + MST 75 + 38 + 250",0.0%
same,% Control,"Eleusine indica; Table 10, Pre-Emergence, 14 DAA, dose g ai/ha: Amicarbazone 75, Mesotrione 38, Ametryn 250, mix AMC + AME + MST 75 + 38 + 250",0.0%
same,% Control,"Eleusine indica; Table 10, Pre-Emergence, 21 DAA, dose g ai/ha: Amicarbazone 75, Mesotrione 38, Ametryn 250, mix AMC + AME + MST 75 + 38 + 250",0.0%
same,% Control,"Eleusine indica; Table 10, Pre-Emergence, 28 DAA, dose g ai/ha: Amicarbazone 75, Mesotrione 38, Ametryn 250, mix AMC + AME + MST 75 + 38 + 250",0.0%
same,% Control,"Commelina benghalensis; Table 11, 21 DAA",8.8%
same,% Control,"Commelina benghalensis; Table 11, 28 DAA",7.3%
same,% Control,"Commelina benghalensis; Table 11, 35 DAA",6.8%
same,% Control,"Euphorbia heterophylla; Table 7, 7 DAA",3.8%
same,% Control,"Euphorbia heterophylla; Table 7, 14 DAA",28.8%
same,% Control,"Euphorbia heterophylla; Table 7, 21 DAA",56.3%
same,% Control,"[3]; Table 3, 14 DAA, dose g ai/ha: Amicarbazone 75, Isoxaflutole 15, Atrazine 250, mix 75 + 15 + 250",11.3%
same,% Control,"[3]; Table 3, 21 DAA, dose g ai/ha: Amicarbazone 75, Isoxaflutole 15, Atrazine 250, mix 75 + 15 + 250",0.0%
same,% Control,"[3]; Table 3, 28 DAA, dose g ai/ha: Amicarbazone 75, Isoxaflutole 15, Atrazine 250, mix 75 + 15 + 250",0.0%
same,% Control,"[3]; Table 4, 7 DAA, dose g ai/ha: Amicarbazone 250, Clomazone 250, Diuron 250, mix 250 + 250 + 250",18.8%
same,% Control,"[3]; Table 4, 14 DAA, dose g ai/ha: Amicarbazone 250, Clomazone 250, Diuron 250, mix 250 + 250 + 250",73.8%
same,% Control,"[3]; Table 4, 28 DAA, dose g ai/ha: Amicarbazone 250, Clomazone 250, Diuron 250, mix 250 + 250 + 250",86.5%
same,% Control,"Digitaria insularis; Table 9, 21 DAA",7.5%
same,% Control,"Digitaria insularis; Table 9, 28 DAA",1.3%
same,% Control,"Digitaria insularis; Table 9, 35 DAA",0.5%
